Data on 20 molecules can be found in ChEMBL document CHEMBL1129530, “Novel alpha-amino-3-hydroxy-5-methylisoxazole-4-propionate receptor antagonists: synthesis and structure-activity relationships of 6-(1H-imidazol-1-yl)-7-nitro-2,3(1H,4H)-pyrido[2,3-b]pyrazinedione and related compounds” (J Med Chem, 1996).

Holding throughout (assay type): cell membranes
The target of test [1] is Glutamate receptor ionotropic, AMPA (Rattus norvegicus) (UniProt P19491+P19492+P19493+P19490). Put plainly: Inhibition [3H]AMPA binding to ionotropic glutamate receptor AMPA in rat whole brain membranes in the presence of […] KSCN.
The target of test [2] is Glutamate receptor ionotropic, AMPA (Rattus norvegicus, UniProt P19490+P19491+P19492+P19493). As to the kind of experiment: In vitro inhibition of the specific binding of [3H]AMPA to Ionotropic glutamate receptor AMPA in rat whole brain membranes in the presence of […] KSCN.
The target of test [3] is Glutamate receptor ionotropic, NMDA 1 (Rattus norvegicus) (UniProt P35439). As to the kind of experiment: (§1) In vitro inhibition of the specific binding of [3H]Gly to N-methyl-D-aspartate glutamate receptor 1 in rat whole brain membranes except cerebellum. The conditions noted are these: concentration not given here.
Test [4] deals with Glutamate receptor ionotropic, NMDA 1 (Rattus norvegicus, UniProt P35439). The description is as §1.

As usually defined, the inhibition is the change of the read-out against control, counted positive when it falls. On to `CSc1ccc2nc(O)c(O)nc2n1`, for which the inhibition in test [1] worked out at 55%. `Cc1ccc2nc(O)c(O)nc2n1`: the inhibition in test [1] came to 31%.

A word on the Ki: it is a dissociation constant, usually derived from enzyme kinetics or from competition with a known ligand. `O=[N+]([O-])c1cc2nc(O)c(O)nc2nc1-n1ccnc1`: in test [2], the inhibition constant Ki came to 140 nM. Further, the inhibition in test [3] was 0%. `CNc1ccc2nc(O)c(O)nc2n1`: the inhibition in test [1] came to 30%. Take `COc1ccc2nc(O)c(O)nc2n1`: the inhibition in test [1] was 41%. For the molecule `Oc1nc2ccc(N3CCOCC3)nc2nc1O`, the inhibition in test [1] stood at 32%. Regarding `Oc1nc2ccc(-n3ccnc3)nc2nc1O`, the inhibition in test [1] is 76%. As to `O=[N+]([O-])c1cnc2nc(O)c(O)nc2c1`, in test [2], the Ki stood at 1100 nM. For `O=c1[nH]c2cc(-n3ccnc3)c([N+](=O)[O-])cc2[nH]c1=O`, the inhibition in test [3] worked out at 16%.

`Oc1nc2cccnc2nc1O`: in test [1], the inhibition worked out at 22%. As for `O=[N+]([O-])c1cc2nc(O)c(O)nc2nc1[N+](=O)[O-]`, the Ki in test [2] amounted to 860 nM; in test [4], 8000 nM. With `CS(=O)(=O)c1ccc2nc(O)c(O)nc2n1`, the inhibition in test [1] was 56%. With `Cc1cnc2nc(O)c(O)nc2c1`, in test [1], the inhibition was 74%.

For `Oc1nc2ccc(Cl)nc2nc1O`, the inhibition in test [1] worked out at 29%. `Oc1nc2cncnc2nc1O`: the inhibition in test [1] was found to be 62%.

With `Oc1nc2ccncc2nc1O`, in test [1], the inhibition was 32%. For `O=[N+]([O-])c1cc2nc(O)c(O)nc2nc1N1CCOCC1`, the Ki in test [2] turned out to be 920 nM. Further, the inhibition in test [3] turned out to be 14%. Turning to `COc1nc2[nH]c(=O)c(=O)[nH]c2cc1[N+](=O)[O-]`, the results for the inhibitory constant (Ki) in test [2] and in test [4] were 700 nM and 370 nM, respectively. Take `Oc1ccc2nc(O)c(O)nc2n1`: the inhibition in test [1] stood at 37%. With `O=[N+]([O-])c1ccc2nc(O)c(O)nc2n1`, the inhibition in test [1] turned out to be 66%.
